A word on the EC50: it is the concentration giving half of the maximal effect. The term IC50 denotes the concentration at which inhibition is half-maximal.

In experiment [1] the test system is 786-O-Hif-Luc cells. The experiment is described as follows: Luciferase Assay (HIF responsive elements reporter). The settings on record: read-out: Mean Luciferase EC50 (nM), 786-O-Hif-Luc cells.
Experimental: A pool of infected cells were then selected against 2 μg/mL of puromycin (P8833, Sigma) for 10 days followed by limited dilution to select single clones. […] Each concentration was tested in triplicate. After about 24 hours, luciferase activity was determined using ONE-Glo Luciferase Assay Reagent (E6110, Promega) following the manufacturer's recommended procedure. EC50 were calculated using Dotmatics software.
Experiment [2] deals with T1, HIF-2α HIS TAG-PASB Domain (Homo sapiens, UniProt Q99814).
T1 construct: 100 nM HIF-2α HIS TAG-PASB Domain
Put plainly: HIF-2α Scintillation Proximity Assay (SPA). It counts as binding. Particulars: read-out: Scintillation Proximity Assay IC50. In outline:
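IC50 values rest on percent inhibition, where the sample signal is scaled between high and low controls. Wells contain about 100 μL: compound dispensed as 2 μL of DMSO solution, 88 μL protein-probe mix and 10 μL of beads.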
(In a scintillation proximity assay essentially only radioactivity close to the scintillant gives light.)

Each structure is given as a SMILES string. Where only a bound is given, the exact number is not on record here.

T1 sequence (Q99814 240-350 limits assumed): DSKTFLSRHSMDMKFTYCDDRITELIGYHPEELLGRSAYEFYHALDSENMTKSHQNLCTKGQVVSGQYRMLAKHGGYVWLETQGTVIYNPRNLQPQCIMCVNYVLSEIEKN

Take `Cc1c(Oc2cc(F)cc(C#N)c2)ccc(S(=O)(=O)C(F)(F)F)c1CO` [Compound 146]: the EC50 in experiment [1] was 250 to 1000 nM. Also, the IC50 in experiment [2] was 50 to 249 nM.
On to `CS(=O)(=O)c1ccc(OC2CC(F)(F)C2)c2c1[C@H](O)C(F)(F)[C@H]2F` [Compound 575, (1S,3S)-4-(3,3-difluorocyclobutoxy)-2,2,3-trifluoro-7-(methylsulfonyl)-2,3-dihydro-1H-inden-1-ol], for which, in experiment [1], the EC50 was above 1000 nM. Moreover, the IC50 in experiment [2] lay in the range of 250 to 1000 nM.
In the case of `O=S(=O)(c1ccc(-c2ccccc2Cl)c2c1[C@H](O)C(F)(F)C2)C(F)(F)F` [Compound 565], the EC50 in experiment [1] was above 1000 nM. The IC50 in experiment [2] is above 1000 nM.
As to `CS(=O)(=O)c1ccc(Oc2cc(F)cc(Cl)c2)c(C(F)F)c1C#N` [Compound 92], the concentration for a half-maximal effect (EC50) in experiment [1] was 250 to 1000 nM. For the same compound, the IC50 in experiment [2] was below 50 nM.
Taken in the same sequence, the figures for `O=S(=O)(c1ccc(OC2CCCC2)c2c1C(O)CC2)C(F)(F)F` (stereo not shown) [Compound 603] were above 1000 nM and 250 to 1000 nM.
The like results for `OC1c2c(I)ccc(OCC(F)F)c2CC1(F)F` (stereo not shown) [Compound 681] were, in that order, 50 to 249 nM and 50 to 249 nM.
For the compound `C#Cc1c(Oc2cc(F)cc(C#N)c2)ccc2c1C(O)C(F)(F)S2(=O)=O` (stereo not shown) [Compound 409], the EC50 in experiment [1] is 50 to 249 nM. Besides, the IC50 in experiment [2] was 50 to 249 nM.
As for `CCS(=O)(=O)c1ccc(Oc2cc(F)cc(Cl)c2)c2c1C(O)CC2` (stereo not shown) [Compound 91], the 50% effective concentration (EC50) in experiment [1] was above 1000 nM. Also, the IC50 in experiment [2] was 250 to 1000 nM.
The like results for `CCCc1ccc(S(=O)(=O)C(F)(F)F)c2c1CC(F)(F)C2O` (stereo not shown) [Compound 517] were, in that order, 250 to 1000 nM and 50 to 249 nM.
Taken in the same sequence, the figures for `N#Cc1cc(Oc2ccc(S(=O)(=O)C(F)F)c3c2CC(F)(F)[C@H]3O)ccc1F` [Compound 200] were 50 to 249 nM and below 50 nM.
Regarding `CCCOc1ccc(S(=O)(=O)C(F)(F)F)c2c1CC(F)(F)C2O` (stereo not shown) [Compound 584], the concentration for a half-maximal effect (EC50) in experiment [1] is below 50 nM. For the same compound, the IC50 in experiment [2] lay in the range of 50 to 249 nM.
For `O/N=C1/c2c(C(F)(F)F)ccc(OC3CC(F)(F)C3)c2CC1(F)F` [Compound 672], the EC50 in experiment [1] is above 1000 nM. The IC50 in experiment [2] was in the range of 50 to 249 nM.
Taken in the same sequence, the figures for `CS(=N)(=O)c1ccc(Oc2cc(F)cc(F)c2)c2c1C(O)CC2` (stereo not shown) [Compound 190] were above 1000 nM and 250 to 1000 nM.
Take `CS(=O)(=O)c1ccc(OC2CCC2)c2c1[C@H](O)C(F)(F)[C@@H]2F` [Compound 753]: the EC50 in experiment [1] was in the range of 250 to 1000 nM. Further, in experiment [2], the IC50 was below 50 nM.
In the case of `O=Cc1c(S(=O)(=O)C(F)(F)F)ccc(Oc2cc(F)cc(Cl)c2)c1Br` [Compound 101], the EC50 in experiment [1] was 250 to 1000 nM. For the same compound, the IC50 in experiment [2] was below 50 nM.
The like results for `O=S(=O)(c1ccc(Oc2ccc(F)c(F)c2)c2c1C(O)CC2)C(F)(F)F` (stereo not shown) [Compound 214] were, in that order, above 1000 nM and 50 to 249 nM.
As to `O=S(=O)(c1ccc(Oc2cc(F)cc(Cl)c2)c(Cl)c1CNCCF)C(F)(F)F` [Compound 114], the EC50 in experiment [1] was above 1000 nM. Further, the IC50 in experiment [2] is above 1000 nM.
As for `CCCOc1ccc(C(F)(F)F)c2c1CC(F)(F)/C2=N\O` [Compound 703], in experiment [1], the EC50 was above 1000 nM. Further, the IC50 in experiment [2] fell in the range of 250 to 1000 nM.
As to `N#Cc1c(S(=O)(=O)C(F)(F)F)ccc(Oc2cc(F)cc(Cl)c2)c1Cl` [Compound 111], the EC50 in experiment [1] is above 1000 nM. Besides, the IC50 in experiment [2] was below 50 nM.
For the compound `CS(=O)(=O)c1ccc(Oc2cc(F)cc(C#N)c2)c2c1[C@H](O)C(F)(Cl)C2` (stereo partly shown) [Compound 270], the EC50 in experiment [1] fell in the range of 50 to 249 nM. Moreover, the IC50 in experiment [2] is 50 to 249 nM.
Take `O=S(=O)(c1ccc(OCC(F)(F)F)c2c1[C@H](O)C(F)(F)C2)C(F)(F)F` [Compound 675]: in experiment [1], the EC50 was below 50 nM. For the same compound, in experiment [2], the IC50 is below 50 nM.
As for `O=S(=O)(c1ccc(Oc2cc(F)cc(Cl)c2)c2c1[C@H](O)CC2)C(F)(F)F` [Compound 56], the EC50 in experiment [1] lay in the range of 50 to 249 nM. For the same compound, in experiment [2], the IC50 was below 50 nM.
Turning to `COCC(C)Oc1ccc(S(=O)(=O)C(F)(F)F)c2c1CC(F)(F)C2O` (stereo not shown) [Compound 594], the concentration for a half-maximal effect (EC50) in experiment [1] was in the range of 50 to 249 nM. For the same compound, the IC50 in experiment [2] is below 50 nM.
Consider `N#Cc1cc(F)cc(Oc2ccc(S(=O)(=O)C(F)(F)F)cc2C#N)c1` [Compound 120], for which, in experiment [1], the EC50 is above 1000 nM. The half-maximal inhibitory concentration (IC50) in experiment [2] is 250 to 1000 nM.
Regarding `O=S(=O)(c1ccc(OC[C@H]2CC2(F)F)c2c1[C@H](O)C(F)(F)C2)C(F)(F)F` [Compound 727], in experiment [1], the EC50 is below 50 nM. For the same compound, the IC50 in experiment [2] was below 50 nM.
As for `CS(=O)(=O)c1ccc(Oc2cc(F)cc(C#N)c2)c2c1C(=O)C(F)(Cl)C2` (stereo not shown) [Compound 269], the EC50 in experiment [1] was above 1000 nM. In experiment [2], the concentration for half-maximal inhibition (IC50) lay in the range of 250 to 1000 nM.
`O=S(=O)(CF)c1ccc(Oc2cc(F)cc(Cl)c2)c2c1[C@H](O)C(F)(F)C2` [Compound 65]: the EC50 in experiment [1] was below 50 nM. Also, the half-maximal inhibitory concentration (IC50) in experiment [2] is below 50 nM.
As to `Cc1c(S(C)(=O)=O)ccc(Oc2cc(F)cc(Cl)c2)c1C(F)F` [Compound 53], in experiment [1], the EC50 is above 1000 nM. Moreover, in experiment [2], the IC50 was in the range of 250 to 1000 nM.
Taken in the same sequence, the figures for `N#CN=S1(=O)c2ccc(Oc3cc(F)cc(F)c3)c(Cl)c2[C@@H](O)C1(F)F` (stereo partly shown) [Compound 412] were above 1000 nM and 50 to 249 nM.
The like results for `O=S1(=O)c2ccc(Oc3cncc(Cl)c3)c(Cl)c2[C@@H](O)C1(F)F` [Compound 432] were, in that order, 250 to 1000 nM and 250 to 1000 nM.
Taken in the same sequence, the figures for `N[C@H]1C[C@@H](Oc2ccc(S(=O)(=O)C(F)(F)F)c3c2CC(F)(F)[C@H]3O)C1` [Compound 724] were above 1000 nM and above 1000 nM.
Consider `O=S(=O)(c1ccc(Oc2c(F)ccc3[nH]ncc23)c2c1[C@H](O)C(F)(F)C2)C(F)(F)F` [Compound 264], for which, in experiment [1], the EC50 is above 1000 nM. The IC50 in experiment [2] was 250 to 1000 nM.
As for `CS(=O)(=O)c1ccc(Oc2cncc(Br)c2)c2c1[C@H](O)C(F)(F)C2` [Compound 324], the EC50 in experiment [1] lay in the range of 250 to 1000 nM. Also, the concentration for half-maximal inhibition (IC50) in experiment [2] lay within 50 to 249 nM.
As for `O=S1(=O)c2ccc(OCc3ccccc3)c(C(F)F)c2C(O)C1(F)F` (stereo not shown) [Compound 411], the EC50 in experiment [1] lay in the range of 250 to 1000 nM. Moreover, the half-maximal inhibitory concentration (IC50) in experiment [2] fell in the range of 250 to 1000 nM.
For the compound `CS(=O)(=O)c1ccc(OCC(F)F)c2c1[C@H](O)C(F)(F)[C@@H]2F` [Compound 755], in experiment [1], the EC50 is above 1000 nM. For the same compound, the IC50 in experiment [2] fell in the range of 50 to 249 nM.
As to `O=S(=O)(c1ccc(Cc2ccccc2)c2c1C(O)C(F)(F)C2)C(F)(F)F` (stereo not shown) [Compound 511], the half-maximal effective concentration (EC50) in experiment [1] is above 1000 nM. For the same compound, the IC50 in experiment [2] was in the range of 250 to 1000 nM.
For the compound `CC1CC(Oc2ccc(S(=O)(=O)C(F)(F)F)c3c2CC(F)(F)C3O)CCO1` (stereo not shown) [Compound 623], in experiment [1], the EC50 was in the range of 50 to 249 nM. In addition, in experiment [2], the IC50 is below 50 nM.
`COC(=O)COc1ccc(S(=O)(=O)C(F)(F)F)c2c1CC(F)(F)C2O` (stereo not shown) [Compound 639]: the EC50 in experiment [1] was above 1000 nM. Moreover, the IC50 in experiment [2] is above 1000 nM.
`N#Cc1cncc(Oc2ccc(S(=N)(=O)C(F)(F)F)c3c2CC(F)(F)[C@H]3O)c1` (stereo partly shown) [Compound 314]: in experiment [1], the concentration giving a half-maximal response (EC50) fell in the range of 50 to 249 nM. In experiment [2], the IC50 was below 50 nM.
As for `O=S(=O)(c1ccc(Oc2ccc(F)c(Cl)c2)c2c1[C@H](O)CC2)C(F)F` [Compound 157], the EC50 in experiment [1] was above 1000 nM. For the same compound, in experiment [2], the IC50 is 250 to 1000 nM.
In the case of `CS(=O)(=O)c1ccc(OCC2(C#N)CC2)c2c1[C@H](O)C(F)(F)[C@@H]2F` [Compound 754], in experiment [1], the EC50 was above 1000 nM. The IC50 in experiment [2] lay within 250 to 1000 nM.

(Values after patent publication US10278942B2 (PELOTON THERAPEUTICS, INC., priority 2015, dated 2019).)
